Source: US20240415781A1, “PYROPTOSIS-TRIGGERING LIPID NANOPARTICLE” (NEW JERSEY INSTITUTE OF TECHNOLOGY, priority 2023, published 2024)

Test: Ionizable cationic lipid library screen, in vitro delivery of luciferase mRNA (mLuc)
Format: cell-based
Conditions: 18*8 library, LNPs with DOPE, cholesterol, DMG-PEG
From the text: In some embodiments, an ionizable cationic lipid is generally composed of three parts: (1) one or more hydrophilic headgroups containing one or multiple ionizable amines for condensing negatively charged mRNA; (2) one or more hydrophobic hydrocarbon chains capable of promoting self-assembly and phospholipid membrane fusion; and (3) one or more degradable ester linkers connecting the headgroups with the hydrocarbon chains to potentially lower systemic cytotoxicity, as shown in FIG. 9B. In some embodiments, a new library of ionizable cationic lipids is provided, with ionizable amine headgroups derived from different amino alcohols and hydrocarbon lipid chains derived from commercially available lipid acids. In some embodiments, using CALB enzyme-assisted reaction, the hydroxyl groups were reacted with carboxylic acids via one-step high-efficiency esterification, as shown in FIG. 9A. An 18*8 library of lipid-like materials was synthesized by varying amino alcohols and lipid acids. These lipid-like materials with DOPE, cholesterol, and DMG-PEG were fabricated at a molar ratio of 50:10:38.5:1.5, which was a widely used formulation to form LNPs and delivered luciferase encoded mRNA (mLuc) in vitro to generate a luciferase expression heat map of lipid-like materials. […]

rank in luciferase expression screen of lipid-like materials: top-performing
SMILES: CCCCC/C=C\C/C=C\CCCCCCCC(=O)OCCN1CCN(CCOC(=O)CCCCCCC/C=C\C/C=C\CCCCC)CC1 [AA3-DLin]
